Format in all cases: biochemical
One assay deals with adenosine A2B receptor (Homo sapiens (Human), UniProt P29275). The experiment in a line: Adenosine receptor activity assay (Table 1), A2B activity. The conditions noted are these: for Ratio: A2A activity to the A2B activity, A2A/A2B; for IC50: read-out: Ave A2B cAMP IC50.
The target in the next assay is adenosine A3 receptor (Homo sapiens (Human), UniProt P0DMS8). The assay is described as follows: Adenosine receptor activity assay (Table 1), A3 cAMP. How it is done:
(§1) Table 1. Compounds (e.g., Adenosine Receptor modulators) and activity assay results. The legend is as follows: A=<10 nM; B=10-50 nM; C=50-100 nM; D=100-500; and E=>500 nM. The ratio corresponds to the A2A activity to the A2B activity; or A2A/A2B.

In another assay the target is adenosine A2A receptor (Homo sapiens (Human), UniProt P29274). The assay is described as follows: Adenosine receptor activity assay (Table 1), A2A activity. The conditions noted are these: read-out: Ave A2A cAMP IC50.
Sequence of adenosine A2A receptor (P29274 whole entry): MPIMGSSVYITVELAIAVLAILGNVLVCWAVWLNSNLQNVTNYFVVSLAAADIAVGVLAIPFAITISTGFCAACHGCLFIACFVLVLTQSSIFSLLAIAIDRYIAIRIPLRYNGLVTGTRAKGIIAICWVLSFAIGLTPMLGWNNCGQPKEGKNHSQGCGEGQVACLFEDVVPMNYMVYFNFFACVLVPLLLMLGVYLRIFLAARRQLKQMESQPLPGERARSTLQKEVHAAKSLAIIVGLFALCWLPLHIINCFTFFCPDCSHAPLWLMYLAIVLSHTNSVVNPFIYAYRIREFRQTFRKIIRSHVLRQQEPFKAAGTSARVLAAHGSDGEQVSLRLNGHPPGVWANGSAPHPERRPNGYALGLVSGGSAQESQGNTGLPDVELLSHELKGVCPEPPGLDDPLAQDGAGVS
For another assay, the target named is adenosine A1 receptor (Homo sapiens (Human), UniProt P30542). The assay is described as follows: Adenosine receptor activity assay (Table 1), A1 cAMP. Here is the method: as §1
Sequence of adenosine A1 receptor (P30542 whole entry): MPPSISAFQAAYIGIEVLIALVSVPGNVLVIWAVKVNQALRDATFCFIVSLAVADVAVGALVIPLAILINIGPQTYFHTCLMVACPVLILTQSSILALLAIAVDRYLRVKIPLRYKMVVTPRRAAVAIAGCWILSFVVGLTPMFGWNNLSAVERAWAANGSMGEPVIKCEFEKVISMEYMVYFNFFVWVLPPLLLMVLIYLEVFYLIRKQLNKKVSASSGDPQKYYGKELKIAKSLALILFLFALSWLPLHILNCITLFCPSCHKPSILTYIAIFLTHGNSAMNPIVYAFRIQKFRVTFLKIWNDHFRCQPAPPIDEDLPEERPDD

Sequence of adenosine A2B receptor (P29275 whole entry): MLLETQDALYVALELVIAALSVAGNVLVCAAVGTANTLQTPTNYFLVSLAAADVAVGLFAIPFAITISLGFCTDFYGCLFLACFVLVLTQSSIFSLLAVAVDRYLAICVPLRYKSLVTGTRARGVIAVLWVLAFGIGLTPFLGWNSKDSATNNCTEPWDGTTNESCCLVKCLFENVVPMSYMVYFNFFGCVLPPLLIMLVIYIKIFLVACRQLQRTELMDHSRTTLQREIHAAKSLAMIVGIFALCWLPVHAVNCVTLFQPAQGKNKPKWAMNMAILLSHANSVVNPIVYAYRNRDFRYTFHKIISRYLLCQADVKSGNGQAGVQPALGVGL
Sequence of adenosine A3 receptor (P0DMS8 whole entry): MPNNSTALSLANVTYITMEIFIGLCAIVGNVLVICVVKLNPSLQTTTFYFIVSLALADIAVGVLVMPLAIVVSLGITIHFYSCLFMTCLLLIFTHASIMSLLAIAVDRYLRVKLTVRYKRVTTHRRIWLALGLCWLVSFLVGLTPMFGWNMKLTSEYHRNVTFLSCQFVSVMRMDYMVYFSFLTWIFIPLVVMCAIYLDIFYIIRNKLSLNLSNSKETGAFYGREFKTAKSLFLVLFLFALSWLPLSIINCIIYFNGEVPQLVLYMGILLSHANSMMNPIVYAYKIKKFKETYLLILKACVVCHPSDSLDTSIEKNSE

One may read the IC50 as the point on the concentration scale where inhibition reaches its midpoint. Take `CC(=O)NCC1CN(C(=O)c2nc(N[C@@H](C)c3cncc(F)c3)nc3ccsc23)C1` [Example Z528, (S)—N-((1-(2-((1-(5-Fluoropyridin-3-yl)ethyl)amino)thieno[3,2-d]pyrimidine-4-carbonyl)azetidin-3-yl)methyl)acetamide]: the Ratio at adenosine A2B receptor is on record as 44.92. Further, the IC50 on adenosine A2B receptor is less than 10 nM; on adenosine A3 receptor, more than 500 nM; at adenosine A2A receptor, 100 to 500 nM; against adenosine A1 receptor it was more than 500 nM.
As to `C[C@H](Nc1nc(C(=O)N2CC(CNC(=O)C(C)(C)C)C2)c2sccc2n1)c1cncc(F)c1` [Example Z529, (S)—N-((1-(2-((1-(5-Fluoropyridin-3-yl)ethyl)amino)thieno[3,2-d]pyrimidine-4-carbonyl)azetidin-3-yl)methyl)pivalamide], the Ratio at adenosine A2B receptor came out at 4.15. For the same compound, the IC50 at adenosine A2B receptor is 10 to 50 nM; on adenosine A3 receptor, more than 500 nM; on adenosine A2A receptor, 100 to 500 nM; against adenosine A1 receptor, more than 500 nM.
Regarding `CC(=O)NC1CN(C(=O)c2nc(N[C@@H](C)c3cncc(F)c3)nc3ccsc23)C1` [Example Z530, (S)—N-(1-(2-((1-(5-Fluoropyridin-3-yl)ethyl)amino)thieno[3,2-d]pyrimidine-4-carbonyl)azetidin-3-yl)acetamide], the Ratio on adenosine A2B receptor turned out to be 6.99. The IC50 on adenosine A2B receptor was 10 to 50 nM; on adenosine A3 receptor, more than 500 nM; at adenosine A2A receptor, 100 to 500 nM; against adenosine A1 receptor, more than 500 nM.
Consider `C[C@H](Nc1nc(C(=O)N2CC(CNS(C)(=O)=O)C2)c2sccc2n1)c1cncc(F)c1` [Example Z531, (S)—N-((1-(2-((1-(5-Fluoropyridin-3-yl)ethyl)amino)thieno[3,2-d]pyrimidine-4-carbonyl)azetidin-3-yl)methyl)methanesulfonamide], for which, on adenosine A2B receptor, the Ratio is given as 19.43. The IC50 was 10 to 50 nM at adenosine A2B receptor, more than 500 nM at adenosine A3 receptor, 100 to 500 nM on adenosine A2A receptor and more than 500 nM at adenosine A1 receptor.
Consider `CC(=O)N[C@@H]1CCN(C(=O)c2nc(N[C@@H](C)c3cncc(F)c3)nc3cc(C)sc23)C1` [Example Z532, N—((R)-1-(2-(((S)-1-(5-Fluoropyridin-3-yl)ethyl)amino)-6-methylthieno[3,2-d]pyrimidine-4-carbonyl)pyrrolidin-3-yl)acetamide], for which the Ratio at adenosine A2B receptor is 149.69. Moreover, the IC50 at adenosine A2B receptor was 10 to 50 nM; against adenosine A3 receptor, more than 500 nM; on adenosine A2A receptor, more than 500 nM; at adenosine A1 receptor it was more than 500 nM.
On to `Cc1cc2nc(N[C@@H](C)c3cncc(F)c3)nc(C(=O)NCCC3CN(C)C3)c2s1` [Example Z535, (S)-2-((1-(5-Fluoropyridin-3-yl)ethyl)amino)-6-methyl-N-(2-(1-methylazetidin-3-yl)ethyl)thieno[3,2-d]pyrimidine-4-carboxamide], for which the Ratio on adenosine A2B receptor is 244.67. In addition, the half-inhibitory concentration (IC50) at adenosine A2B receptor was 10 to 50 nM; on adenosine A3 receptor it was more than 500 nM; at adenosine A2A receptor, more than 500 nM; against adenosine A1 receptor it was more than 500 nM.
For `Cc1cc2nc(N[C@@H](C)c3cncc(F)c3)nc(C(=O)N3CC(N4CCCC4)C3)c2s1` [Example Z540, (S)-(2-((1-(5-Fluoropyridin-3-yl)ethyl)amino)-6-methylthieno[3,2-d]pyrimidin-4-yl)(3-(pyrrolidin-1-yl)azetidin-1-yl)methanone], the Ratio on adenosine A2B receptor was 33.20. Moreover, the IC50 at adenosine A2B receptor was 10 to 50 nM; on adenosine A3 receptor, more than 500 nM; at adenosine A2A receptor, 100 to 500 nM; against adenosine A1 receptor, more than 500 nM.
`Cc1cc2nc(N[C@@H](C)c3cncc(F)c3)nc(C(=O)N3CC(NC(=O)C4CCCO4)C3)c2s1` (stereo partly drawn) [Example Z541, N-(1-(2-(((S)-1-(5-Fluoropyridin-3-yl)ethyl)amino)-6-methylthieno[3,2-d]pyrimidine-4-carbonyl)azetidin-3-yl)tetrahydrofuran-2-carboxamide]: the Ratio on adenosine A2B receptor is on record as 1.64. Also, the concentration for half-maximal inhibition (IC50) is 10 to 50 nM on adenosine A2B receptor, 100 to 500 nM against adenosine A3 receptor, 10 to 50 nM on adenosine A2A receptor and 100 to 500 nM against adenosine A1 receptor.
`Cc1cc2nc(N[C@@H](C)c3cncc(F)c3)nc(C(=O)N3CC(NC(=O)C4CCC4)C3)c2s1` [Example Z542, (S)—N-(1-(2-((1-(5-Fluoropyridin-3-yl)ethyl)amino)-6-methylthieno[3,2-d]pyrimidine-4-carbonyl)azetidin-3-yl)cyclobutanecarboxamide]: the Ratio at adenosine A2B receptor is given as 1.45. For the same compound, the half-inhibitory concentration (IC50) at adenosine A2B receptor was 10 to 50 nM; at adenosine A3 receptor it was 50 to 100 nM; on adenosine A2A receptor, 10 to 50 nM; on adenosine A1 receptor it was more than 500 nM.
Turning to `CC(=O)NC1CN(C(=O)c2nc(N[C@@H](C)c3cncc(F)c3)nc3cc(C)sc23)C1` [Example Z543, (S)—N-(1-(2-((1-(5-Fluoropyridin-3-yl)ethyl)amino)-6-methylthieno[3,2-d]pyrimidine-4-carbonyl)azetidin-3-yl)acetamide], the Ratio on adenosine A2B receptor is 18.71. Further, the results for the IC50 against adenosine A3 receptor, on adenosine A2A receptor and against adenosine A1 receptor were more than 500 nM, 100 to 500 nM and more than 500 nM, respectively.
With `Cc1cc2nc(N[C@@H](C)c3cncc(F)c3)nc(C(=O)N3CC(NC(=O)c4ccoc4)C3)c2s1` [Example Z546, (S)—N-(1-(2-((1-(5-Fluoropyridin-3-yl)ethyl)amino)-6-methylthieno[3,2-d]pyrimidine-4-carbonyl)azetidin-3-yl)furan-3-carboxamide], the Ratio on adenosine A2B receptor is 3.52. The IC50 was less than 10 nM at adenosine A2B receptor, more than 500 nM at adenosine A3 receptor, 10 to 50 nM at adenosine A2A receptor and more than 500 nM against adenosine A1 receptor.
As to `C[C@H](Nc1nc(C(=O)N2CCC(C(=O)NOC(C)(C)C)C2)c2sccc2n1)c1cncc(F)c1` (stereo partly drawn) [Example Z549, N-(tert-Butoxy)-1-(2-(((S)-1-(5-fluoropyridin-3-yl)ethyl)amino)thieno[3,2-d]pyrimidine-4-carbonyl)pyrrolidine-3-carboxamide], the Ratio at adenosine A2B receptor was 0.63. Further, the IC50 is 10 to 50 nM at adenosine A2B receptor, more than 500 nM at adenosine A3 receptor, less than 10 nM on adenosine A2A receptor and more than 500 nM against adenosine A1 receptor.
Take `C[C@H](Nc1nc(C(=O)N2CC(CN(C)C(=O)C(C)(C)C)C2)c2sccc2n1)c1cncc(F)c1` [Example Z551, (S)—N-((1-(2-((1-(5-Fluoropyridin-3-yl)ethyl)amino)thieno[3,2-d]pyrimidine-4-carbonyl)azetidin-3-yl)methyl)-N-methylpivalamide]: the Ratio on adenosine A2B receptor amounted to 1.68. Moreover, the IC50 at adenosine A2B receptor was 10 to 50 nM; against adenosine A3 receptor it was more than 500 nM; at adenosine A2A receptor it was 10 to 50 nM; against adenosine A1 receptor, more than 500 nM.
Turning to `Cc1cc2nc(N[C@@H](C)c3ccccn3)nc(C(=O)N3CC(C(=O)OC(C)(C)C)C3)c2s1` [Example Z552, tert-Butyl (S)-1-(6-methyl-2-((1-(pyridin-2-yl)ethyl)amino)thieno[3,2-d]pyrimidine-4-carbonyl)azetidine-3-carboxylate], on adenosine A2B receptor, the Ratio is 2.32. For the same compound, the concentration for half-maximal inhibition (IC50) was 10 to 50 nM at adenosine A2B receptor, 100 to 500 nM at adenosine A3 receptor, 10 to 50 nM at adenosine A2A receptor and more than 500 nM against adenosine A1 receptor.
On to `COCC1CN(C(=O)c2nc(N[C@@H](C)c3ccccn3)nc3c(C)csc23)C1` [Example Z553, (S)-(3-(methoxymethyl)azetidin-1-yl)(7-methyl-2-((1-(pyridin-2-yl)ethyl)amino)thieno[3,2-d]pyrimidin-4-yl)methanone], for which the Ratio at adenosine A2B receptor stood at 3.87. The IC50 on adenosine A2B receptor is less than 10 nM; at adenosine A3 receptor it was 100 to 500 nM; on adenosine A2A receptor, 10 to 50 nM; against adenosine A1 receptor, more than 500 nM.

Source of the values: US11254686B1 (Corvus Pharmaceuticals, Inc., priority 2017, dated 2022).
